Key:
[1] = test system: L1210 tumor cells; test: Antitumor efficacy in L1210 tumor-bearing CDF1 mice (increase in life span); assay type: in vivo
Protocol: In the following test, antitumor efficacy studies were performed using 8-9 weeks old female CDF1 mice, the average weight of the animal is 20-25 grams. L1210 tumor cells (about 10^5 cells per mouse) were inoculated intraperitoneally. The fluorine-containing water-soluble platinum complexes were used to treat the tumor-bearing animals and the efficacy was compared compared with the clinical platinum antitumor drugs. […] Drugs were administered intraperitoneally on day 1 and day 4 after tumor cell transplantation. The number of experimental animals in each group was 6.
The experimental animals were purchased from Vital River Laboratory Animal Technology Co. Ltd., Tumor cells L1210-leukemia cells were purchased from Shanghai An Yan Commercial Trade Co. Ltd.
The increase in life span (ILS) is calculated as follows:
Wherein, St=the weighted median survival time of treated animals; Su=the weighted median survival time of untreated animals

[2] = cited from earlier work
[3] = 24 mg/Kg i.p. on day 1 and day 4
[4] = 40 mg/Kg i.p. on day 1 and day 4
[5] = 80 mg/Kg i.p. on day 1 and day 4

Question: Which “ILS (%)” value [1, 3] does the source give for `N.N.O=C([O-])C1(C(=O)[O-])CCC1.[Pt+2]` [Carboplatin] here?
Answer: Its value is 10%.

Question: And the “Survived Animals on Day 42” value [1, 3]?
Answer: The value was 0/6.

Question: What about the “Weight Changes (g)” value ([1]; 24 mg/Kg i.p. on day 1 and day 4, weight changes from the first day to the seventh day) of the same compound?
Answer: The value was “+0 g”.

Question: What about the “ILS (%)” value [1, 4] of the same compound?
Answer: The value was 24%.

Question: And the “Survived Animals on Day 42” value [1, 4]?
Answer: Its value is 0/6.

Question: And the “Weight Changes” value ([1]; 40 mg/Kg i.p. on day 1 and day 4, weight changes from the first day to the seventh day)?
Answer: Its value is -0.3 g.

Question: What about the “ILS (%)” value [1, 5] of the same compound?
Answer: The value was 55%.

Question: What about the “Survived Animals on Day 42” value [1, 5] of the same compound?
Answer: Its value is 1/6.

Question: And the “Weight Changes” value ([1]; 80 mg/Kg i.p. on day 1 and day 4, weight changes from the first day to the seventh day)?
Answer: Its value is -1.2 g.

Question: What about the water solubility [2] of the same compound?
Answer: Its water solubility is 17 mg/mL.

Reference: US20140349955A1, “USE OF FLUORINE-CONTAINING WATER SOLUBLE PLATINUM COMPLEX IN PREPARING DRUGS FOR PREVENTION AND TREATMENT OF CANCERS” (GUDUI BIOPHARMA TECHNOLOGY INC., priority 2011, published 2014)
